The source of these data is US11234997B2, “Antibacterial activity of galactooligosaccharide and xylitol in dermatological treatments” (ROTTAPHARM SPA, priority 2017, dated 2022).

Test [1] concerns S. epidermidis 317 (clinical strain). The test can be described thus: Biofilm phase reduction (safranin staining, OD492). Format: cell-based, Staphylococcus epidermidis. The conditions noted are these: GOS 0%; for percentage of biofilm reduction (anti-adhesive): 3 h; for percentage of biofilm reduction (anti-biofilm): 24 h. On the procedure: (§1) Galactooligosaccharide and xylitol were evaluated alone and in combination at different concentrations (concentrations: 0, 1, 2.5 and 5%) to affect bacterial planktonic production and biofilm-forming ability of standardized broth cultures of S. aureus 815 (clinical strain) and S. epidermidis 317 (clinical strain) was assessed. Bacterial suspensions grown in TSB supplemented with 0.5% (v/v) glucose at logarithmic phase, were incubated on 96 flat-bottomed microliter plates in the presence of galactooligosaccharide or xylitol or their combination at different concentrations or TSB (control). After incubation for 3 h and 24 h at 37° C., each well was washed twice with sterile PBS, air-dried, stained for 1 min with 0.1% safranin, and washed with PBS. The stained biofilm were re-suspended in 200 μl ethanol (95% v/v), and OD492 was measured by spectrophotometry using an ELISA reader. Table 4 outlines the percentage of biofilm reduction (anti-adhesive (3 h) and anti-biofilm (24 h)) of S. aureus 815 and S. epidermidis 317 in the presence of galactooligosaccharide, xylitol and their combinations at different concentrations.

The test system of test [2] is S. aureus 815 (clinical strain). The experiment in a line: Biofilm phase reduction (safranin staining, OD492). Type of test: cell-based, Staphylococcus aureus. Conditions: GOS 0%; for percentage of biofilm reduction (anti-adhesive): 3 h; for percentage of biofilm reduction (anti-biofilm): 24 h. Here is the method: as §1
The test system of test [3] is S. epidermidis 317 (clinical strain). The test can be described thus: Planktonic phase growth reduction (OD600). Format: cell-based, Staphylococcus epidermidis. The conditions noted are these: GOS 0%. Here is the method: (§2) Galactooligosaccharide and xylitol were evaluated alone and in combination at different concentrations (concentrations: 0, 1, 2.5 and 5%) to affect bacterial planktonic production and biofilm-forming ability of standardized broth cultures of S. aureus 815 (clinical strain) and S. epidermidis 317 (clinical strain) was assessed. Different concentrations of galactooligosaccharide, xylitol and their combination, were added to a 96 well plate to evaluate their in vitro effect on S. aureus and S. epidermidis bacterial planktonic population. The overnight bacterial inocula were prepared in Tryptic soy broth (TSB), refreshed in the same medium and adjusted to OD600=0.12 (approximately 5×10^6 CFU/ml) for the experiments. For the controls, galactooligosaccharide and xylitol were also assayed alone. The plates were incubated for t=3, and 6 h at 37° C. in aerobic conditions. Each determination was performed in duplicate for three independent experiments and the biomass was evaluated using a safranin staining method. After each time of incubation, the reduction of the OD600 was evaluated in respect to the controls and the colony forming units (CFU)/ml at 0 and 24 h were detected. Table 3 outlines the percentage reduction of S. aureus 815 and S. epidermidis 317 growth in planktonic phase in the presence of galactooligosaccharide, xylitol and their combinations at different concentrations (OD600) after 3 and 6 h.

Test [4] relates to S. aureus 815 (clinical strain). The test can be described thus: Planktonic phase growth reduction (OD600). Type of test: cell-based, Staphylococcus aureus. Conditions: GOS 0%. Here is the method: as §2

Structures are written as SMILES.

Consider `OC[C@@H](O)[C@H](O)[C@@H](O)CO` [Xylitol, xylitol], for which the “percentage of biofilm reduction (anti-adhesive)” value in test [1] (xylitol 1%) is listed as 1.00%; in test [1] (xylitol 2.5%) it was 10.64%; in test [1] (xylitol 5%), 14.16%; in test [2] (xylitol 1%) it was 21.61%; in test [2] (xylitol 2.5%), 28.81%; in test [2] (xylitol 5%), 36.98%. Also, the “percentage of biofilm reduction (anti-biofilm)” value was found to be 22.81% in test [1] (xylitol 1%); 22.18% in test [1] (xylitol 2.5%); 5.67% in test [1] (xylitol 5%); 51.68% in test [2] (xylitol 1%); 47.8% in test [2] (xylitol 2.5%); 56.02% in test [2] (xylitol 5%). The “percentage reduction of growth in planktonic phase (OD600)” value is 13.40% in test [3] (xylitol 1%, 3 h); 22.11% in test [3] (xylitol 1%, 6 h); 19.36% in test [3] (xylitol 2.5%, 3 h); 28.57% in test [3] (xylitol 2.5%, 6 h); 27.13% in test [3] (xylitol 5%, 3 h); 29.99% in test [3] (xylitol 5%, 6 h). The “percentage reduction of growth in planktonic phase (OD600)” value in test [4] (xylitol 1%, 3 h) came out at 14.38%; in test [4] (xylitol 1%, 6 h), 15.86%; in test [4] (xylitol 2.5%, 3 h), 23.93%; in test [4] (xylitol 2.5%, 6 h), 27.80%; in test [4] (xylitol 5%, 3 h), 26.70%; in test [4] (xylitol 5%, 6 h), 35.13%.
